In the NIST ThermoML archive (doi:10.1016/j.tca.2006.10.008):
Several values for one entry are separate records, joined by “and”; a condition that tells them apart may be missing. Identical values can stand only once. Numbers after ± are expanded uncertainties.

Details: for vapor or sublimation pressure: Transpiration method; for Triple point temperature: DTA

F[B-](F)(F)F.[Cs+] [cesium tetrafluoroborate]
Crystal 1
Details	vapor or sublimation pressure
586 K	3.63e-05 ± 1.9e-06 kPa
592 K	4.17e-05 ± 2.2e-06 kPa
602 K	6.62e-05 ± 3.4e-06 kPa
608 K	8.43e-05 ± 4.3e-06 kPa
611 K	8.34e-05 ± 4.3e-06 kPa
623 K	0.0001414 ± 7.2e-06 kPa
627 K	0.0001287 ± 6.5e-06 kPa [middle of 4 runs]
634 K	0.0001822 ± 9.2e-06 kPa
648 K	0.0002611 ± 1.3e-05 kPa
654 K	0.0003472 ± 1.7e-05 kPa
666 K	0.0003572 ± 1.8e-05 kPa
682 K	0.0005593 ± 2.8e-05 kPa
692 K	0.0007727 ± 3.9e-05 kPa
703 K	0.0008954 ± 4.5e-05 kPa
705 K	0.000949 ± 4.8e-05 kPa

Details	Triple point temperature [K]
Crystal 2	442 ± 1

F[B-](F)(F)F.[Rb+] [rubidium tetrafluoroborate]
Crystal 1
Details	vapor or sublimation pressure
550 K	3.93e-05 ± 2.1e-06 kPa
555 K	5.32e-05 ± 2.8e-06 kPa
566 K	6.47e-05 ± 3.3e-06 kPa
576 K	9.73e-05 ± 5e-06 kPa
581 K	9.94e-05 ± 5.1e-06 kPa
592 K	0.0001394 ± 7.1e-06 kPa
602 K	0.0001641 ± 8.3e-06 kPa
613 K	0.0002173 ± 1.1e-05 kPa
622 K	0.0002867 ± 1.4e-05 kPa and 0.000287 ± 1.5e-05 kPa and 0.0002854 ± 1.4e-05 kPa
629 K	0.0003005 ± 1.5e-05 kPa
641 K	0.0004209 ± 2.1e-05 kPa
655 K	0.0005109 ± 2.6e-05 kPa
676 K	0.0007892 ± 4e-05 kPa
697 K	0.001082 ± 5.4e-05 kPa

Details	Triple point temperature [K]
Crystal 2	527 ± 1

F[B-](F)(F)F.[Na+] [sodium tetrafluoroborate]
vapor or sublimation pressure
Details	Crystal 1	Crystal 2
483 K	–	0.0002215 ± 1.1e-05 kPa
493 K	–	0.0003008 ± 1.5e-05 kPa
498 K	–	0.0003479 ± 1.7e-05 kPa
503 K	–	0.0003963 ± 2e-05 kPa
519 K	0.0006401 ± 3.2e-05 kPa	0.0006401 ± 3.2e-05 kPa
523 K	0.0008727 ± 4.4e-05 kPa	–
533 K	0.001184 ± 5.9e-05 kPa	–
544 K	0.001662 ± 8.3e-05 kPa	–
545 K	0.001475 ± 7.4e-05 kPa	–
554 K	0.001848 ± 9.2e-05 kPa [middle of 5 runs]	–
566 K	0.002561 ± 0.00013 kPa	–
575 K	0.002638 ± 0.00013 kPa	–
576 K	0.003027 ± 0.00015 kPa	–
580 K	0.003513 ± 0.00018 kPa	–
586 K	0.003838 ± 0.00019 kPa	–
602 K	0.003513 ± 0.00018 kPa	–
612 K	0.005891 ± 0.00029 kPa	–
622 K	0.008782 ± 0.00044 kPa	–
663 K	0.01582 ± 0.00079 kPa	–

Details	Triple point temperature [K]
Crystal 2	519 ± 1
